Experimental data: patent publication US4683239A, “3-diphenyl substituted octahydroindolizine analgesic compounds” (McNeilab, Inc., priority 1986, dated 1987)
Counter-ions that a name gives are not always drawn.

Test system: mice
Assay: Mouse Acetylcholine-Bromide-Induced Abdominal Constriction Assay
Type: in vivo
Settings: Mus musculus, po, 0.5 h, oral (p.o.), 30 min before i.p. 5.5 mg/kg acetylcholine bromide, dose which inhibits writhing by 50%
Protocol: […]., 32: 295-310, 1968, with minor modifications was used to assess analgesic potency of the compounds of formula (I). The test drugs or appropriate vehicle were administered orally (p.o.) and 30 minutes later the animals received an intraperitoneal (i.p.) injection of 5.5 mg/kg acetylcholine bromide (Matheson, Coleman and Bell, East Rutherford, NJ). The mice were then placed in groups of four into glass bell jars and observed for a ten minute observation period for the occurrence of a writhe (defined as a wave of constriction and elongation passing caudally along the abdominal wall, accompanied by a twisting of the trunk and followed by extension of the hind limbs). The percent inhibition of writhing (equated to % analgesia) was calculated as follows: The % Inhibition of writhing, i.e., % analgesia is equal to the difference between the No. of control animals writhing and the No. of drug-treated animals writhing times 100 divided by the No. of control animals writhing. At least 20 animals were used for control and in each of the drug treated groups. Four doses were used to determine each dose response curve and ED50 (that dose which inhibits writhing by 50%). The ED50 values and their 95% fiducial limits were determined by a computer assisted probit analysis.

Structure (SMILES) | ED50 [mg/kg]
CC(=O)Nc1cccc(C#Cc2ccc([C@@H]3CC[C@@H]4CCCCN43)cc2)c1 (relative stereo) [Example 2, N-[3-[[4-(trans-Octahydro-3-indolizinyl)phenyl]ethynyl]phenyl]acetamide] | 17.6
Cl.c1ccc(COc2ccc([C@@H]3CC[C@@H]4CCCCN43)cc2)cc1 (relative stereo) [Example 3b, trans-Octahydro-3-[4-(phenylmethoxy)phenyl]indolizine Hydrochloride] | 16.8
CC(=O)Nc1cccc(/C=C\c2ccc([C@H]3CC[C@H]4CCCCN43)cc2)c1 (relative stereo) [Example 4] | 6.9
Cl.c1ccc(CCc2ccc([C@@H]3CC[C@@H]4CCCCN43)cc2)cc1 (relative stereo) [Example 6, trans-Octahydro-3-[4-(2-phenylethyl)phenyl]indolizine Hydrochloride] | 6.9
CC(=O)Nc1ccc(Oc2ccc([C@H]3CC[C@H]4CCCCN43)cc2)cc1 (relative stereo) [Example 12f, N-[4-[4-trans-Octahydro-3-indolizinyl)phenoxy]phenylacetamide] | ≤ 5
Cc1ccc(Sc2ccc(C3CCC4CCCCN43)cc2)cc1.Cl (stereo not drawn) [Example 7, 3-[4-[(4-Methylphenyl)thio]phenyl]octahydroindolizine Hydrochloride] | 20 to 30

Same assay, conditions: oral (p.o.), @ 30 mg/kg, 30 min before i.p. 5.5 mg/kg acetylcholine bromide, printed in ED50 column

Structure (SMILES) | % Inhibition of writhing (% analgesia) [%]
CC(=O)Nc1cccc(CCc2ccc([C@@H]3CC[C@@H]4CCCCN43)cc2)c1 (relative stereo) [Example 9, N-[3-[2-[4-(trans-Octahydro-3-indolizinyl)phenyl]ethyl]phenyl]acetamide] | 86
CC(=O)Nc1cccc(Sc2ccc([C@H]3CC[C@H]4CCCCN43)cc2)c1 (relative stereo) [Example 11, N-[3-[[4-trans-Octahydro-3-indolizinyl)phenyl]thio]phenyl]acetamide Hydrochloride Hydrate] | 73
CC(=O)Nc1ccc(Sc2ccc([C@@H]3CC[C@@H]4CCCCN43)cc2)c(Cl)c1.Cl (relative stereo) [Example 13e] | 46
